Laboratory results from patent US20240002391A1, “4-ALKOXYPYRROLO[2,1-F][1,2,4]TRIAZINES AND PREPARATION AND USES THEREOF” (BioSplice Therapeutics, Inc., priority 2022, published 2024).
pEC50, pIC50: −log10 of the molar value.

Columns and labels:
[1] = molecular target: recombinant DYRK1A kinase (Homo sapiens (Human), UniProt Q13627); experiment: DYRK1A kinase assay (Ser/Thr 18 peptide Z-lyte FRET); assay type: biochemical; settings: DYRK1A kinase activity, Z-lyte Ser/Thr 18 peptide, 15 μM ATP; method text calls the value IC50; read-out: EC50 (the source's name)
In short: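 Z-lyte FRET read-out: coumarin (Em 455) over fluorescein (Em 520) emission ratio, converted to percent phosphorylation after 1 h development. Reaction: 0.25 μg/mL kinase, 15 μM ATP, 4 μM peptide, 1 h RT with compound, duplicate wells. IC50s fitted by non-linear regression.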

[2] = test system: Tau phosphorylation at Thr212 (pThr212) in HEK293T cells transfected with DYRK1A and MAPT; experiment: Tau phosphorylation phosphoTau (Thr212) AlphaLISA assay in HEK293T cells transfected with DYRK1A and MAPT; assay type: cell-based; settings: HEK-293T, HEK293T cells transiently transfected with human DYRK1A and MAPT, compound treatment 18-24 hours, read-out: pTau (Thr212) EC50
Description: Representative compounds were screened using the assay procedure for tau phosphorylation activity described below.
HEK293T cells (ATCC, CRL3216) cultured in DMEM (Thermo Fisher Scientific, 10566024) supplemented with 10% FBS (Coming, 35-011—CV) and Penicillin/Streptomycin (Thermo Fisher Scientific, 15140163) were seeded in a 75 cm^2 flask at 8.1×10^6 cells/flask. The HEK293T cells were then transiently transfected with 5 μg DYRK1A (NM_001396) human untagged clone (OriGene, SC314641) and 2.5 μg MAPT (441 a.a. Tau gene) (NM_005910) human untagged clone (OriGene, TP313312) using Lipofectamine 3000 (Thermo Fisher Scientific, L30000015) and incubated for 20-30 hours in a humidified incubator at 37° C. and 5% CO^2. Post-incubation, HEK293T cells transfected with the DYRK1A and MAPT expression vectors were harvested and seeded in BioCoat poly-D lysine coated 96-well plates (Coming, 354461) at 3×10^4 cells/well.
The above synthesized compounds were screened using the cell assay procedure to assess decreased Tau phosphorylation at Thr212 (pThr212) described below.
Each compound was dissolved in DMSO (Sigma-Aldrich, D8418-100 mL) as a 10 mM stock. 10 mM stocks were serially diluted 1:3, 10-point dose-response curve and added to the cells with a final concentration ranging from 20 μM to 1.1 nM. Cells were treated with compounds in duplicate and incubated for 18-24 hours in a humidified incubator at 37° C. and 5% CO^2.
Following the overnight compound treatment, cells were lysed with 1X Alpha Surefire Ultra Lysis Buffer (Perkin Elmer, ALSU-LB-100ML) complemented with 1X Halt Phosphatase Inhibitor Cocktail (Thermo Fisher Scientific, 78427) and 1X Halt Protease Inhibitor Cocktail (Thermo Fisher Scientific, 78438). Lysates were spun down at 12,000 g for 10 min to remove any cellular debris and 5 μL of lysates were dispensed into a 384-well Opti-Plate (Perkin Elmer, 6007290) for the measurement of Tau phosphorylation in the phosphoTau (Thr212) AlphaLISA assay. Donor antibody, biotinylated HT7Tau (Thermo Fisher Scientific, MN1000B), and acceptor antibody, pThr212Tau (Thermo Fisher Scientific, 44740G) were both added to the cell lysates at a final concentration of 3 nM and incubated for 1 hour at room temperature. Following incubation of the lysates with the donor and acceptor antibodies, anti-rabbit IgG(Fc specific) AlphaLISA acceptor beads (Perkin Elmer, AL104C) were added at a 10 ug/mL final concentration and incubated for 1 hour at room temperature protected from light. Lastly, AlphaScreen streptavidin donor beads (PerkinElmer, 6760002) were added at 40 ug/mL final concentration and incubated for 1 hour at room temperature protected from light. Plates were read at […] on the EnVision Multilabel Plate Reader (Perkin Elmer). The phospho-Tau (Thr212) AlphaLISA signal was used to plot, draw the curve fitting, and determine each compound's EC50 in Prism (GraphPad).

pIC50 [1]	Compound	pEC50 [2]
7.65	COc1nc(N[C@H]2CC[C@@](C)(O)CC2)nn2ccc(-c3cnc4nc(C)n(CC(F)F)c4c3)c12 [Compound 1, cis-4-((5-(1-(2,2-Difluoroethyl)-2-methyl-1H-imidazo[4,5-b]pyridin-6-yl)-4-methoxypyrrolo[2,1-f][1,2,4]triazin-2-yl)amino)-1-methylcyclohexan-1-ol]	7.67
8.82	COc1nc(N[C@H]2CC[C@](C)(O)CC2)nn2ccc(-c3ccc4nnn(C)c4c3)c12 [Compound 3, trans-4-((4-Methoxy-5-(1-methyl-1H-benzo[d][1,2,3]triazol-6-yl)pyrrolo[2,1-f][1,2,4]triazin-2-yl)amino)-1-methylcyclohexan-1-ol]	6.71
8.47	COc1nc(N[C@H]2CC[C@](C)(O)CC2)nn2ccc(-c3ccn4nccc4c3)c12 [Compound 20, trans-4-((4-Methoxy-5-(pyrazolo[1,5-a]pyridin-5-yl)pyrrolo[2,1-f][1,2,4]triazin-2-yl)amino)-1-methylcyclohexan-1-ol]	6.97
	COc1nc(N[C@H]2C[C@](C)(O)C2)nn2ccc(-c3ccc4nccn4c3)c12 [Compound 44, trans-3-((5-(Imidazo[1,2-a]pyridin-6-yl)-4-methoxypyrrolo[2,1-f][1,2,4]triazin-2-yl)amino)-1-methylcyclobutan-1-ol]	7.32
8.92	COc1nc(N[C@H]2CC[C@H](NC(C)=O)CC2)nn2ccc(-c3ccc4nccn4c3)c12 [Compound 54, N-(trans-4-((5-(Imidazo[1,2-a]pyridin-6-yl)-4-methoxypyrrolo[2,1-f][1,2,4]triazin-2-yl)amino)cyclohexyl)acetamide]	7.59
8.89	COc1nc(N[C@H]2CC[C@](C)(O)CC2)nn2ccc(-c3ccc4nccn4c3)c12 [Compound 56, trans-4-((5-(Imidazo[1,2-a]pyridin-6-yl)-4-methoxypyrrolo[2,1-f][1,2,4]triazin-2-yl)amino)-1-methylcyclohexan-1-ol]	7.45
9.05	COc1nc(N[C@H]2C[C@](C)(NC(C)=O)C2)nn2ccc(-c3ccc4ncnn4c3)c12 [Compound 192, N-(trans-3-((5-([1,2,4]Triazolo[1,5-a]pyridin-6-yl)-4-methoxypyrrolo[2,1-f][1,2,4]triazin-2-yl)amino)-1-methylcyclobutyl)acetamide]	7.74
8.66	COc1nc(N[C@H]2CC[C@](C)(O)CC2)nn2ccc(-c3ccc4ncnn4c3)c12 [Compound 194, trans-4-((5-([1,2,4]Triazolo[1,5-a]pyridin-6-yl)-4-methoxypyrrolo[2,1-f][1,2,4]triazin-2-yl)amino)-1-methylcyclohexan-1-ol]	6.97
8.42	COc1nc(N[C@H]2C[C@](C)(O)C2)nn2ccc(-c3ccc4nnn(C)c4c3)c12 [Compound 200, trans-3-((4-Methoxy-5-(1-methyl-1H-benzo[d][1,2,3]triazol-6-yl)pyrrolo[2,1-f][1,2,4]triazin-2-yl)amino)-1-methylcyclobutan-1-ol]	6.89
8.82	CNC(=O)[C@]1(C)C[C@@H](Nc2nc(OC)c3c(-c4ccc5nnn(C)c5c4)ccn3n2)C1 [Compound 210, trans-3-((4-Methoxy-5-(1-methyl-1H-benzo[d][1,2,3]triazol-6-yl)pyrrolo[2,1-f][1,2,4]triazin-2-yl)amino)-N,1-dimethylcyclobutane-1-carboxamide]	7.71
9.40	COc1nc(N[C@H]2CC[C@](C)(O)CC2)nn2ccc(-c3cnc4nccn4c3)c12 [Compound 257, trans-4-((5-(Imidazo[1,2-a]pyrimidin-6-yl)-4-methoxypyrrolo[2,1-f][1,2,4]triazin-2-yl)amino)-1-methylcyclohexan-1-ol]	7.82
8.85	COc1nc(N[C@H]2CCN(C3COC3)C[C@H]2F)nn2ccc(-c3ccc4ncn(CC(F)F)c4c3)c12 [Compound 1141, 5-(1-(2,2-Difluoroethyl)-1H-benzo[d]imidazol-6-yl)-N-((3R,4S)-3-fluoro-1-(oxetan-3-yl)piperidin-4-yl)-4-methoxypyrrolo[2,1-f][1,2,4]triazin-2-amine]	
8.64	COc1nc(N[C@H]2CCN(C3COC3)C[C@H]2F)nn2ccc(-c3cc(F)c4nc(C)n(C(C)C)c4c3)c12 [Compound 1142, N-((3R,4S)-3-Fluoro-1-(oxetan-3-yl)piperidin-4-yl)-5-(4-fluoro-1-isopropyl-2-methyl-1H-benzo[d]imidazol-6-yl)-4-methoxypyrrolo[2,1-f][1,2,4]triazin-2-amine]	
8.74	CCC(=O)N1CC[C@H](Nc2nc(OC)c3c(-c4ccc5nnn(CCF)c5c4)ccn3n2)[C@H](F)C1 [Compound 1143, 1-((3R,4S)-3-Fluoro-4-((5-(1-(2-fluoroethyl)-1H-benzo[d][1,2,3]triazol-6-yl)-4-methoxypyrrolo[2,1-f][1,2,4]triazin-2-yl)amino)piperidin-1-yl)propan-1-one]	
8.70	COc1nc(NCC2(C)COC2)nn2ccc(-c3ccc4nnn(CC(F)F)c4c3)c12 [Compound 1144, 5-(1-(2,2-Difluoroethyl)-1H-benzo[d][1,2,3]triazol-6-yl)-4-methoxy-N-((3-methyloxetan-3-yl)methyl)pyrrolo[2,1-f][1,2,4]triazin-2-amine]	
8.85	COc1nc(N[C@H]2CCN(S(C)(=O)=O)C[C@H]2F)nn2ccc(-c3ccc4nnn(CC(F)F)c4c3)c12 [Compound 1145, 5-(1-(2,2-Difluoroethyl)-1H-benzo[d][1,2,3]triazol-6-yl)-N-((3R,4S)-3-fluoro-1-(methylsulfonyl)piperidin-4-yl)-4-methoxypyrrolo[2,1-f][1,2,4]triazin-2-amine]	
8.70	COc1nc(NCC(C)(C)C#N)nn2ccc(-c3cnc4nccn4c3)c12 [Compound 1146, 3-((5-(Imidazo[1,2-a]pyrimidin-6-yl)-4-methoxypyrrolo[2,1-f][1,2,4]triazin-2-yl)amino)-2,2-dimethylpropanenitrile]	
8.57	COc1nc(N[C@H](C)C2CCOCC2)nn2ccc(-c3cnc4nccn4c3)c12 [Compound 1147, (R)-5-(Imidazo[1,2-a]pyrimidin-6-yl)-4-methoxy-N-(1-(tetrahydro-2H-pyran-4-yl)ethyl)pyrrolo[2,1-f][1,2,4]triazin-2-amine]	
9.22	COc1nc(NC2CCOC(C)(C)C2)nn2ccc(-c3cnc4nccn4c3)c12 (centres unmarked) [Compound 1148, N-(2,2-Dimethyltetrahydro-2H-pyran-4-yl)-5-(imidazo[1,2-a]pyrimidin-6-yl)-4-methoxypyrrolo[2,1-f][1,2,4]triazin-2-amine]	
8.35	COc1nc(N[C@@H]2CCOC[C@H]2F)nn2ccc(-c3cnc4nccn4c3)c12 [Compound 1149, N-((3S,4R)-3-Fluorotetrahydro-2H-pyran-4-yl)-5-(imidazo[1,2-a]pyrimidin-6-yl)-4-methoxypyrrolo[2,1-f][1,2,4]triazin-2-amine]	
8.36	COc1nc(NC2CC3CCC(C2)O3)nn2ccc(-c3cnc4nccn4c3)c12 (centres unmarked) [Compound 1150, N-(8-Oxabicyclo[3.2.1]octan-3-yl)-5-(imidazo[1,2-a]pyrimidin-6-yl)-4-methoxypyrrolo[2,1-f][1,2,4]triazin-2-amine]	

Compound	pIC50 [1]	pEC50 [2]
N-(cis-4-((4-Methoxy-5-(quinolin-6-yl)pyrrolo[2,1-f][1,2,4]triazin-2-yl) amino)cyclohexyl)acetamide [Compound 1044]	8.49	
